Reference: publication PMC9127186, “Molecular Basis Underlying Hepatobiliary and Renal Excretion of Phenolic Acids of Salvia miltiorrhiza Roots (Danshen)” (Frontiers in Pharmacology, 2022)

Assays:
human OCT3 = target: T1, human OCT3 (Homo sapiens, UniProt O75751); assay: Cellular transport assay, HEK-293 cells expressing human OCT3; settings: Danshen phenolic acid at 100 μM final concentration, 10 min; human OCT3-transfected vs mock cells
T1 sequence (O75751 1-556): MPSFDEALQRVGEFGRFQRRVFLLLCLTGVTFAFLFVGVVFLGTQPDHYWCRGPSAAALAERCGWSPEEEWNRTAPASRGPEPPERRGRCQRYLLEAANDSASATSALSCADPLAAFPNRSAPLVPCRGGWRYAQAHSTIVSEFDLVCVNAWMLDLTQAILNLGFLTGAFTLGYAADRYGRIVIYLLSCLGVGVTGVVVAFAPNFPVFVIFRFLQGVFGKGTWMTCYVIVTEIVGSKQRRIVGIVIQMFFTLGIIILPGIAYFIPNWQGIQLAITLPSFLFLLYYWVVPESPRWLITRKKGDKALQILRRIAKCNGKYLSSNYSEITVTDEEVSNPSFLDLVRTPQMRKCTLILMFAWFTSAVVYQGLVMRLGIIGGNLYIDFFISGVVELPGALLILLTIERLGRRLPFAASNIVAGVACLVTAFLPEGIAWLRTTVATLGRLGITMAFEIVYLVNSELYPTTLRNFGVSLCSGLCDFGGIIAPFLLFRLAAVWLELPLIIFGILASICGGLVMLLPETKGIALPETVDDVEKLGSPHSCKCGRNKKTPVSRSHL

rat Pept1 = target: T2, rat Pept1 (Rattus norvegicus, UniProt P51574); assay: Cellular transport assay, HEK-293 cells expressing rat Pept1; settings: Danshen phenolic acid at 100 μM final concentration, 10 min, incubation pH 6.0; rat Pept1-transfected vs mock cells
T2 sequence (P51574 1-710): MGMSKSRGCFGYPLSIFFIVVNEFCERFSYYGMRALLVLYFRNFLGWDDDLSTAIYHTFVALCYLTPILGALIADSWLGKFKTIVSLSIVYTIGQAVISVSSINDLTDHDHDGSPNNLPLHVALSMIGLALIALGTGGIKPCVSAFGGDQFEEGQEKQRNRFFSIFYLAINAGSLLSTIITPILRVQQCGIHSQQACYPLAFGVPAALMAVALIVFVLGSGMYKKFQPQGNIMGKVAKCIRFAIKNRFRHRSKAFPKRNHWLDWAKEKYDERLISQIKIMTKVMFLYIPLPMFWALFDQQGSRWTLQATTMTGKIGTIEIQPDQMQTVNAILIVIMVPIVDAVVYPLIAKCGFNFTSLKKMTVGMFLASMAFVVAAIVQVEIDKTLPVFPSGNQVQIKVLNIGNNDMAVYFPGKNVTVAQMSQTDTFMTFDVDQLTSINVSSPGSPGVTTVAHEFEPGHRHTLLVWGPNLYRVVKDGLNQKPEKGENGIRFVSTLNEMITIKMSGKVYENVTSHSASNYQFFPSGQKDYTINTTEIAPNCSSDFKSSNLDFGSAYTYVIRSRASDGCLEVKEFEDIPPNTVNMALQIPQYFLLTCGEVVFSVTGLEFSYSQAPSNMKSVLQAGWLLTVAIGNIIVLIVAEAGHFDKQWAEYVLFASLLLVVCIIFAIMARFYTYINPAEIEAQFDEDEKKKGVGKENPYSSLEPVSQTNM

human OCT1 = target: T3, human OCT1 (Homo sapiens, UniProt O15245); assay: Cellular transport assay, HEK-293 cells expressing human OCT1; settings: Danshen phenolic acid at 100 μM final concentration, 10 min; human OCT1-transfected vs mock cells
T3 sequence (O15245 1-554): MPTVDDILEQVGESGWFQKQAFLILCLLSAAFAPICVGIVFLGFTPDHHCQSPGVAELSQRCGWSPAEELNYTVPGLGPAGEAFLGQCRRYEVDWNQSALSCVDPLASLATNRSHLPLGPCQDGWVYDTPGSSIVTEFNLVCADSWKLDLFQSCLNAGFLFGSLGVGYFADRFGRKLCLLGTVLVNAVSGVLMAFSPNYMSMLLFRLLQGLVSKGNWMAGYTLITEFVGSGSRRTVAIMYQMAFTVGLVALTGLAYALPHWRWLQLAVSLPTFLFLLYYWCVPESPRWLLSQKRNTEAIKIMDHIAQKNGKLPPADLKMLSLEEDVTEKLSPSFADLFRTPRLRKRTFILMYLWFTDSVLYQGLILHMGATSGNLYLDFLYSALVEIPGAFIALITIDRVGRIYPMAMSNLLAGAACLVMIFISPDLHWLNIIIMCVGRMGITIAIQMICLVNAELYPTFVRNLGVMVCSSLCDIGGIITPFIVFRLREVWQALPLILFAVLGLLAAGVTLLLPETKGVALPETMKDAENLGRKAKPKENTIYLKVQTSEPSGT

## O=C(/C=C/c1ccc(O)c(O)c1)O[C@H](Cc1ccc(O)c(O)c1)C(=O)O [Rosmarinic acid, rosmarinic acid]
Human OCT3
  TransportTC/TransportMC ratio (net transport ratio): 0.75 ± 0.23

## O=C(O)c1ccc(O)c(O)c1 [Protocatechuic acid, protocatechuic acid]
Rat Pept1
  TransportTC/TransportMC ratio (net transport ratio): 1.37 ± 0.36
Human OCT1
  TransportTC/TransportMC ratio (net transport ratio): 1.09 ± 0.33
Human OCT3
  TransportTC/TransportMC ratio (net transport ratio): 0.94 ± 0.24

## O=C(O)Cc1c(/C=C/C(=O)O[C@H](Cc2ccc(O)c(O)c2)C(=O)O)ccc(O)c1O [Salvianolic acid D, salvianolic acid D]
Rat Pept1
  TransportTC/TransportMC ratio (net transport ratio): 1.43 ± 0.36
Human OCT1
  TransportTC/TransportMC ratio (net transport ratio): 1.04 ± 0.24
Human OCT3
  TransportTC/TransportMC ratio (net transport ratio): 0.94 ± 0.32

## salvianolic acid B
Rat Pept1
  TransportTC/TransportMC ratio (net transport ratio): 1.21 ± 0.45
Human OCT1
  TransportTC/TransportMC ratio (net transport ratio): 1.03 ± 0.07
Human OCT3
  TransportTC/TransportMC ratio (net transport ratio): 0.75 ± 0.38

## O=C(/C=C/c1ccc(O)c2c1[C@H](C(=O)O)[C@@H](c1ccc(O)c(O)c1)O2)O[C@H](Cc1ccc(O)c(O)c1)C(=O)O [Lithospermic acid, lithospermic acid]
Rat Pept1
  TransportTC/TransportMC ratio (net transport ratio): 1.31 ± 0.32
Human OCT1
  TransportTC/TransportMC ratio (net transport ratio): 1.56 ± 0.26
Human OCT3
  TransportTC/TransportMC ratio (net transport ratio): 0.84 ± 0.15
